Measurements from patent publication US11286231B2, “Hydrogen-bonding compounds, compositions comprising the same, and methods of preparing and using the same” (Wake Forest University Health Sciences, priority 2016, dated 2022).

Columns and labels:
[1] = Preliminary rheometer tensile stretch (stickiness) test of catechol amine hydrogel; type: physicochemical
Excerpt: (§1) These increases were not observed in control groups. This gives validation to the activity of the newly added catechol components of the system. […] Following this observation we employed the rheometer using a customized protocol to apply a tensile stretch to hydrogels that had immobilized between the base and testing geometry of the rheometry. The geometry was brought into contact with the sample and lowered until 0.4 N normal force was reached by the load cell. At this point, the sample was allowed to equilibrate for 30 seconds, after which the rheometer applied constant displacement vertically at 5 um/s, raising the geometry 1000 um, during which time resistive force (“stickiness”) was measured by the load cell every second.

[2] = Preliminary rheology, shear elastic modulus G′ of modular HA hydrogel with catechol amine; type: physicochemical; conditions: catechol amine bound to thiolated HA/gelatin hydrogel via thiol-alkyne, FIG. 1
Excerpt: as §1
Mechanical bulk properties. Hydrogels will be formed in custom molded 12 mm dishes and assessed by rheology to determine bulk material shear elastic modulus. […]

## C#CCNCc1ccc(O)c(O)c1 [Compound C1.1]
[1]; catechol amine containing hydrogel, 5 um/s, 1000 um, FIG. 2, preliminary
  increase in tensile resistance: 3 fold
[1]; qualitative
  stickiness of hydrogel constructs during mechanical shear testing: significantly more “stickiness”
[2]
  G′ values of the hydrogel constructs (change): further increased the G′ values
